Here are results for two molecules from patent US7501454B2, “Cyclohexenone compounds from Antrodia camphorata to treat autoimmune diseases” (Golden Biotechnology Corporation, priority 2007, dated 2009).

Structures are written as SMILES.

For experiment [1], the system named is female NZB/WF1 SLE mice. Kind of experiment: Titers of anti-dsDNA antinuclear antibodies in plasma of female NZB/WF1 SLE mice (Mouse Anti-dsDNA IgG ELISA kit). It counts as in vivo. The protocol: (§1) Female NZB/WF1 mice spontaneously develop human SLE-like syndromes, such as generation of antinuclear autoantibodies, proteinuria, and renal toxicity to cause death. The disease is more severe in female mice than in male mice; the morbidity of female mice is also higher than that of male mice. Therefore, female NZB/WF1 mice were used for screening anti-SLE drugs in this study.
(§2) Thirty female NZB/WF1 mice (purchased from Jackson Lab, USA) between 12-24 weeks of age were analyzed biweekly to determine proteinuria levels, monthly to assess the titers of antinuclear autoantibody (ANA). The increased titers of ANA and positive response implicated that female NZB/WF1 mice were going to develop SLE and were ready for grouping. At 22 weeks of age, the animals showing the abovementioned syndromes were randomly divided into 3 groups (10 mice per group, water was administered to negative control group, steroid was given to positive control group, and cyclohexenone compounds of Antrodia camphorata was administered to experiment group), and the start time for the experiment was set as week zero. In addition, ten B6 mice (purchased from National Laboratory Animal Center, Taiwan) without SLE syndrome were normal mice served as blank group.
The blank group in Table 1 was B6 mice of no SLE syndrome, which received no treatment and normal diet for natural growth. NZB/WF1 female mice that were able to express SLE syndromes were served in negative control and positive control groups. Mice in the former group received normal water; in the latter were orally medicated with 1.25 mg/kg of prednisolone, the SLE drug. Mice in the experiment group were orally medicated with 50 mg/kg of cyclohexenone compounds from Example 1. The mice were fed with the abovementioned substances once per day starting at 23 weeks of age, and this period of time was referred to as the first week of this experiment. […]
The titers of dsDNA antinuclear antibodies were determined in this study to assess the effects of cyclohexenone compounds from Antrodia camphorata on SLE mice. […]
(In general: An ELISA detects its analyte on a solid surface through an enzyme-linked reagent.)

Experiment [2] concerns female NZB/WF1 SLE mice. Nature of the experiment: Changes of proteinuria in female NZB/WF1 SLE mice (Bio-Rad protein assay of urine). The format is in vivo. The settings on record: for proteinuria level: negative control 246 mg/dl. As for the experimental part:
as §1, §2
The blank group in Table 1 was B6 mice of no SLE syndrome, which received no treatment and normal diet for natural growth. NZB/WF1 female mice that were able to express SLE syndromes were served in negative control and positive control groups. Mice in the former group received normal water; in the latter were orally medicated with 1.25 mg/kg of prednisolone, the SLE drug. Mice in the experiment group were orally medicated with 50 mg/kg of cyclohexenone compounds from Example 1. […]
SLE patients develop renal inflammation and damage, which cause leakage of protein from kidney into the fluid. […] Ten μl of urine was assayed with Bio-Rad Protein Assay Dye Reagent Concentrate (Bio-Rad Laboratories, USA) and read under […] with an ELISA analyzer to determine the protein concentration with a standard curve.

With `C[C@]12C=CC(=O)C=C1CC[C@@H]1[C@@H]2[C@@H](O)C[C@@]2(C)[C@H]1CC[C@]2(O)C(=O)CO` [prednisolone, reference compound], in the experiment with female NZB/WF1 SLE mice [1] (positive group, prednisolone 1.25 mg/kg oral once per day, week 8), the “titer of anti-dsDNA antinuclear antibodies decreased to” value is “around 50%”. This molecule gave a proteinuria level in the experiment with female NZB/WF1 SLE mice [2] (positive control group, prednisolone 1.25 mg/kg oral once per day, after 6 weeks) of 32.6 mg/dL.

On to `COC1=C(OC)C(O)C(C/C=C(\C)CC/C=C(\C)CCC=C(C)C)C(C)C1=O` (stereo not drawn) [4-hydroxy-2,3-dimethoxy-6-methyl-5(3,7,11-trimethyl-dodeca-2,6,10-trienyl)-cyclohex-2-enone], for which, in the experiment with female NZB/WF1 SLE mice [1] (experiment group, 50 mg/kg oral once per day, during 8 weeks of experiment), the “titers of anti-dsDNA antinuclear antibodies compared with negative group” value is listed as “significantly lower titers of anti-dsDNA antinuclear antibodies than those in the negative group”. Moreover, the “titer of antinuclear antibodies decreased to” value with female NZB/WF1 SLE mice [1] (experiment group, 50 mg/kg oral once per day, week 8) was determined as 34%. Besides, in the experiment with female NZB/WF1 SLE mice [2] (experiment group, 50 mg/kg oral once per day, after 6 weeks of experiment), the proteinuria level is 118.2 mg/dL. Further, in the experiment with female NZB/WF1 SLE mice [2] (experiment group, 50 mg/kg oral once per day, after 6 weeks, negative control 2.76-fold), the “fold increase of proteinuria level versus before experiment” value is 1.3 fold.
